Read-outs that look alike come from different tables or passages of the source.
Assays:
DC-SIGN CRD [1] = molecular target: T1, DC-SIGN CRD (Homo sapiens, UniProt Q9NNX6); experiment: COIN-nMS affinity measurement; assay type: binding; parameters: The carbohydrate recognition domain (CRD) of DC-SIGN (residues 250–404, MW 17 794 Da); made in house
T1 sequence (Q9NNX6 250-404): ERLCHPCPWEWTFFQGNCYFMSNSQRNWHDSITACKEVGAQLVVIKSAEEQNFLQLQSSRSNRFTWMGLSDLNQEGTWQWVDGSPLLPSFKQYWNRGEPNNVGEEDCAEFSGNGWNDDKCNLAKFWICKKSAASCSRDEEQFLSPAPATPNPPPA

GAL-3C [2] = molecular target: T2, GAL-3C (Homo sapiens, UniProt P17931); experiment: direct nMS (ESI-MS) affinity measurement at known concentrations; assay type: binding; parameters: human Galectin-3 (GAL-3C, residues 107–250, molecular weight (MW) 16 327 Da); key: NB: No binding detected; details: glycans present as a mixture (G2, G5-G13); pH 6.9
DC-SIGN CRD [3] = molecular target: T1, DC-SIGN CRD; experiment: direct nMS affinity measurement; assay type: binding; parameters: The carbohydrate recognition domain (CRD) of DC-SIGN (residues 250–404, MW 17 794 Da); made in house; details: pH 7.4
GAL-3C [4] = molecular target: T2, GAL-3C; experiment: COIN-nMS affinity measurement; assay type: binding; parameters: human Galectin-3 (GAL-3C, residues 107–250, molecular weight (MW) 16 327 Da); key: NB: No binding detected; details: glycans present as a mixture (G2, G5-G13); average of eight measurements; pH 6.9
GAL-7 homodimer [5] = molecular target: T3, GAL-7 homodimer (Homo sapiens, UniProt P47929); experiment: COIN-nMS affinity measurement; assay type: binding; parameters: key: NB: No binding detected; details: glycans present as a mixture (G2, G5-G13); average of eight measurements; pH 6.9
T3 construct: made in house

GNA [6] = molecular target: T4, GNA (Galanthus nivalis, UniProt P30617); experiment: direct nMS (ESI-MS) measurement; assay type: binding; details: read-out: Kd by direct nMS (column Kd (Literature))
T4 sequence (P30617 24-128 limits assumed): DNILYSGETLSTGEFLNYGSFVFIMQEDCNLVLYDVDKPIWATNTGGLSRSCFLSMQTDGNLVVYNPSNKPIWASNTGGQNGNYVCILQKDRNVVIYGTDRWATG

GNA [7] = molecular target: T4, GNA; experiment: COIN-CaR-nMS; assay type: binding; details: purified glycan; ammonium acetate 200 mM, pH 6.9
GAL-7 homodimer [8] = molecular target: T3, GAL-7 homodimer; experiment: direct nMS affinity measurement; assay type: binding; parameters: key: NB: No binding detected; details: glycans present as a mixture (G2, G5-G13); pH 6.9
[9] = molecular target: T5, AAL (Aleuria Aurantia lectin) (Aleuria aurantia, UniProt P18891); experiment: COIN-CaR-nMS; assay type: binding; details: N-glycan natural libraries; pH 6.9
T5 construct: purchased Vector Laboratories (Newark, CA, USA)
T5 sequence (P18891 1-313): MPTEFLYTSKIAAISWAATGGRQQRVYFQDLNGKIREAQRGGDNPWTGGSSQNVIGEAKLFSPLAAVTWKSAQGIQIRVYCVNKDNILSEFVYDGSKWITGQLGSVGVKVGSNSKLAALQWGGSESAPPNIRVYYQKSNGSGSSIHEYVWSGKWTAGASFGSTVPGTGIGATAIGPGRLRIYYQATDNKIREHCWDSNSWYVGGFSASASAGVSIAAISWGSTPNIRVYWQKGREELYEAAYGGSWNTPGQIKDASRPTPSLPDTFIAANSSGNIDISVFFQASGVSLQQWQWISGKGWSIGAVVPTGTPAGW

[10] = molecular target: RCA-I (Ricinus communis agglutinin) (Ricinus communis, UniProt P06750); assay type: binding; details: pH 6.9; read-out: Kd (Native)
MAA = experiment: Isothermal titration calorimetry (ITC); assay type: binding, Maackia amurensis; details: ammonium acetate 200 mM, 25 °C, read-out: apparent Kd by ITC (Literature)
Siglec-7 = details: ITC; cited from earlier work
[11] = molecular target: T6, fCD22 (fragment of human Siglec 2) (Homo sapiens, UniProt P20273); experiment: direct nMS affinity measurement; assay type: binding; details: individual glycan; ammonium acetate 200 mM, pH 6.9
T6 construct: A fragment of human Siglec 2 (fCD22, residue 1–332, MW 37.4 kDa); made in house; host or cells: wild-type CHO cells
T6 sequence (P20273 20-332): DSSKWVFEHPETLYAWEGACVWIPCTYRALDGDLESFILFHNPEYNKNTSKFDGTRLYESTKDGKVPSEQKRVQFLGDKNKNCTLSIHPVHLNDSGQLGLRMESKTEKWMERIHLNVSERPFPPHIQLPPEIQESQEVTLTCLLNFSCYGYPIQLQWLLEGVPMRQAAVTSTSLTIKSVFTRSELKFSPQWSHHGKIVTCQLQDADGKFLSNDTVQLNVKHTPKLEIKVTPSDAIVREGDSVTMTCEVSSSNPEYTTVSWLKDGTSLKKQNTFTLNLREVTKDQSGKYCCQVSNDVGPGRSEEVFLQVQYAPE

[12] = molecular target: T6, fCD22 (fragment of human Siglec 2); details: literature value; ref S3; cited from earlier work
[13] = molecular target: T6, fCD22 (fragment of human Siglec 2); experiment: COIN-nMS affinity measurement; assay type: binding

T2 sequence (P17931 107-250): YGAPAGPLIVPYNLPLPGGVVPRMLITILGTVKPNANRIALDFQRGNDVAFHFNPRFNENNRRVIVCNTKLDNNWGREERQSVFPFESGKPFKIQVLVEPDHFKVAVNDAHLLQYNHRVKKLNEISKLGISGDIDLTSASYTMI
T3 sequence (P47929 whole entry): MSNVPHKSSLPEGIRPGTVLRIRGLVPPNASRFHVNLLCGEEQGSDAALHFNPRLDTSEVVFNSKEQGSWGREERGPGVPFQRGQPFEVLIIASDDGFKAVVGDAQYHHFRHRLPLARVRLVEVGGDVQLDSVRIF

`OC[C@H]1O[C@H](O[C@@H]2[C@@H](OC[C@H]3O[C@H](OC[C@H]4OC(O)[C@@H](O)[C@@H](O[C@H]5O[C@H](CO)[C@@H](O)[C@H](O)[C@@H]5O[C@H]5O[C@H](CO)[C@@H](O)[C@H](O)[C@@H]5O[C@H]5O[C@H](CO)[C@@H](O)[C@H](O)[C@@H]5O)[C@@H]4O)[C@@H](O)[C@@H](O[C@H]4O[C@H](CO)[C@@H](O)[C@H](O)[C@@H]4O[C@H]4O[C@H](CO)[C@@H](O)[C@H](O)[C@@H]4O)[C@@H]3O)O[C@H](CO)[C@@H](O)[C@@H]2O)[C@@H](O)[C@@H](O)[C@@H]1O` (stereo partly drawn) [Glycan G5, α-D-Man-(1→2)-α-D-Man-(1→6)-[Man-(1→2)-α-D-Man-(1→3)]-α-D-Man-(1→6)-[Man-(1→2)-α-D-Man-(1→2)-α-D-Man-(1→3)]-α-D-Man] gave a Kd (DC-SIGN CRD [1]; global fit of data sets at 75, 100, 125 µM glycan, read-out: Kd (COIN-nMS, global fit)) of 235 ± 12.6 µM, a Kd (DC-SIGN CRD [1]; glycan concentration 75 µM, pH 7.4, read-out: Kd (COIN-nMS, individual experiments)) of 212 ± 2.2 µM and a Kd (DC-SIGN CRD [1]; glycan concentration 100 µM, pH 7.4, read-out: Kd (COIN-nMS, individual experiments)) of 246.7 ± 1 µM. For the same compound, the Kd (DC-SIGN CRD [1]; glycan concentration 125 µM, pH 7.4, read-out: Kd (COIN-nMS, individual experiments)) was 234 ± 1.5 µM, the Kd (DC-SIGN CRD [1]; glycans present as a mixture (G2, G5, G10, G14-G20), average of six measurements, pH 7.4, read-out: Kd (COIN-nMS)) was 240 ± 40 µM and the “Kd (nMS)” value (GAL-3C [2]) was “NB”. For the same compound, the Kd (DC-SIGN CRD [3]; glycans present as a mixture (G2, G5, G10, G14-G20)) was 230 ± 20 µM, the Kd (DC-SIGN CRD [3]; individual glycan, ammonium acetate 200 mM, 2.5 mM calcium) was 231 ± 17.3 µM and the “Kd (COIN-nMS)” value (GAL-3C [4]) was “NB and do not bind”. The “Kd (COIN-nMS)” value (GAL-7 homodimer [5]) was “NB and do not bind”, the Kd (GNA [6]) was 774 µM and the Kd (GNA [7]) was 553.2 ± 1 µM. The “Kd (nMS)” value (GAL-7 homodimer [8]) was “NB”.
With `CC(=O)N[C@H]1[C@H](O[C@H]2[C@H](O)[C@@H](NC(C)=O)C(O)O[C@@H]2CO[C@@H]2O[C@@H](C)[C@@H](O)[C@@H](O)[C@@H]2O)O[C@H](CO)[C@@H](O[C@@H]2O[C@H](CO[C@H]3O[C@H](CO)[C@@H](O)[C@H](O)[C@@H]3O[C@@H]3O[C@H](CO)[C@@H](O)[C@H](O)[C@H]3NC(C)=O)[C@@H](O)[C@H](O[C@H]3O[C@H](CO)[C@@H](O)[C@H](O)[C@@H]3O[C@@H]3O[C@H](CO)[C@@H](O)[C@H](O)[C@H]3NC(C)=O)[C@@H]2O)[C@@H]1O` (some centres unmarked) [HexNAc4Hex3Fuc1] the Kd [9] was 2.6 ± 0.57 µM and the Kd [10] was 1.73 ± 0.08 µM.
In the case of `CC(=O)N[C@H]1[C@H]([C@H](O)[C@H](O)CO)O[C@@](O[C@H]2[C@@H](O)[C@@H](CO)O[C@@H](O[C@H]3[C@H](O)[C@@H](O)C(O)O[C@@H]3CO)[C@@H]2O)(C(=O)O)C[C@@H]1O` (stereo partly drawn) [Glycan G22, α-D-Neu5Ac-(2→3)-β-D-Gal-(1→4)-D-Glc], the Kd (MAA) is listed as 4 ± 2 µM and the Kd (Siglec-7) is listed as 680 µM.
In the case of `CC(=O)NC1C(O)OC(CO)C(OC2OC(CO)C(OC3OC(COC4OC(CO)C(O)C(O)C4OC4OC(CO)C(OC5OC(COC6(C(=O)O)CC(O)C(NC(C)=O)C(C(O)C(O)CO)O6)C(O)C(O)C5O)C(O)C4NC(C)=O)C(O)C(OC4OC(CO)C(O)C(O)C4OC4OC(CO)C(OC5OC(COC6(C(=O)O)CC(O)C(NC(C)=O)C(C(O)C(O)CO)O6)C(O)C(O)C5O)C(O)C4NC(C)=O)C3O)C(O)C2NC(C)=O)C1O` [Glycan G4, [α-D-Neu5Ac-(2→6)-β-D-Gal-(1→4)-β-D-GlcNAc-(1→2)-α-D-Man-(1→3)]-[α-D-Neu5Ac-(2→6)-β-D-Gal-(1→4)-β-D-GlcNAc-(1→2)-α-D-Man-(1→6)]-β-D-Man(1→4)-β-D-GlcNAc-(1→4)-D-GlcNAc], the Kd [11] is listed as 13.1 ± 0.6 µM, the Kd [12] is listed as 13.1 ± 0.6 µM and the Kd ([13]; global fit of data sets at 30, 50, 75 µM glycan, read-out: Kd (COIN-nMS, global fit)) is listed as 23.5 ± 1.4 µM. For the same compound, the Kd ([13]; glycan concentration 30 µM, pH 6.9, read-out: Kd (COIN-nMS, individual experiments)) was 25.4 ± 2.2 µM, the Kd ([13]; glycan concentration 50 µM, pH 6.9, read-out: Kd (COIN-nMS, individual experiments)) was 37.5 ± 0.5 µM and the Kd ([13]; glycan concentration 75 µM, pH 6.9, read-out: Kd (COIN-nMS, individual experiments)) was 23.4 ± 0.7 µM.
